Where two headings read alike, the source gives them in different places.
Tests used:
[1] = biological target: T1, MGL (Rattus norvegicus, UniProt Q8R431); assay: 2-AG accumulation assay in rat brain homogenate; format: biochemical; conditions: rat brain homogenate, 2-AG accumulation as percent of vehicle; for 2-AG accumulation, % of vehicle control at 10 µM: compound 10 μM, read-out: Rat Brain 2AG % VehCntrl (%) @ 10 μM; for 2-AG accumulation, % of vehicle control at 1 µM: compound 1 μM, read-out: Rat Brain 2AG % VehCntrl (%) @ 1 μM
T1 construct: one g rat brain was homogenized using a Polytron homogenizer; from tissue; host or cells: rat brain homogenate
T1 sequence (Q8R431 1-303): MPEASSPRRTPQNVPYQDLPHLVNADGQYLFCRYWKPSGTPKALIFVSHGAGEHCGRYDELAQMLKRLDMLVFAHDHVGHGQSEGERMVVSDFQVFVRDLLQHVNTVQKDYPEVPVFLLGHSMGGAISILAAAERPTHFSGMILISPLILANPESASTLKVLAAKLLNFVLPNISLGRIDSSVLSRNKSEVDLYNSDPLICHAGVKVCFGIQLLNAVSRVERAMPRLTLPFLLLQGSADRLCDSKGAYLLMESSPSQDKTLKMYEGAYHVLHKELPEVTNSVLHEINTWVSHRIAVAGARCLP

[2] = biological target: T2, mutant MGL (Homo sapiens, UniProt Q99685, L169S/L176S); assay: MGL ThermoFluor assay - mutant; format: binding
T2 sequence (Q99685 1-303 L169S/L176S): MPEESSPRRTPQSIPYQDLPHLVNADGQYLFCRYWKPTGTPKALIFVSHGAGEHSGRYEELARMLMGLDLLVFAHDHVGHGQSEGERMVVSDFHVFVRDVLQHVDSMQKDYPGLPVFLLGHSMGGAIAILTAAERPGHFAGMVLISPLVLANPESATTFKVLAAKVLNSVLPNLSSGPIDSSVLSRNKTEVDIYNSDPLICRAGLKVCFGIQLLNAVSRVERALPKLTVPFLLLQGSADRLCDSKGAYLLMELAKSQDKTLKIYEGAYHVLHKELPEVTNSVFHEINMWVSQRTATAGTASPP

[3] = ThermoFluor thermal stability binding assay, read-out: MGL mutant ThermoFluor Kd
[4] = ThermoFluor concentration-response, read-out: MGL mutant ThermoFluor Kd

| SMILES | Kd [2, 3] | 2-AG accumulation, % of vehicle control at 1 µM [1] | Kd [2, 4] | other results |
| --- | --- | --- | --- | --- |
| CC(C)(C)OC(=O)N1CCC(c2ccc(C(=O)N3CC(N4CCN(C(=O)c5cscn5)CC4)C3)cc2)CC1 [Cpd 903] | 0.078 µM | 908% |  |  |
| O=C(c1ccc(-c2ccccc2)cc1)N1CC(N2CCN(C(=O)c3ccns3)CC2)C1 [Cpd 310, 1-[1-(Biphenyl-4-ylcarbonyl)azetidin-3-yl]-4-(isothiazol-5-ylcarbonyl)piperazine] | 0.25 µM | 141% |  |  |
| O=C(c1ccc(-c2ccccc2)cc1)N1CC(N2CCN(C(=O)c3ccco3)CC2)C1 [Cpd 6, 1-[1-(Biphenyl-4-ylcarbonyl)azetidin-3-yl]-4-(furan-2-ylcarbonyl)piperazine] |  | 554% | 0.0036 µM | 2-AG accumulation, % of vehicle control at 0.01 µM ([1]; compound 0.01 μM, read-out: Rat Brain 2AG % VehCntrl (%) @ 0.01 μM): 75%; 2-AG accumulation, % of vehicle control at 0.1 µM ([1]; compound 0.1 μM, read-out: Rat Brain 2AG % VehCntrl (%) @ 0.1 μM): 238%; 2-AG accumulation, % of vehicle control at 10 µM [1]: 623% |
| O=C(c1cscn1)N1CCN(C2CN(C(=O)c3sc4cc(F)ccc4c3Cl)C2)CC1 [Cpd 929] | 0.02 µM | 301% |  |  |
| O=C(c1ccc2c(c1)CCCN2S(=O)(=O)c1cccc(F)c1)N1CC(N2CCN(C(=O)c3nccs3)CC2)C1 [Cpd 368, 1-[(3-Fluorophenyl)sulfonyl]-6-({3-[4-(1,3-thiazol-2-ylcarbonyl)piperazin-1-yl]azetidin-1-yl}carbonyl)-1,2,3,4-tetrahydroquinoline] | 0.0551 µM | 434% |  |  |
| O=C(c1ccc(Oc2ccc(Cl)c(Cl)c2)cc1)N1CC(N2CCN(C(=O)c3nccs3)CC2)C1 [Cpd 423, 1-(1-{[4-(3,4-Dichlorophenoxy)phenyl]carbonyl}azetidin-3-yl)-4-(1,3-thiazol-2-ylcarbonyl)piperazine] |  | 529% | 0.0069 µM |  |
| O=C(c1ccccc1)N1CCN(C2CN(C(=O)c3sc4cc(F)ccc4c3Cl)C2)CC1 [Cpd 543] | 0.038 µM | 158% |  |  |
| O=C(c1ccc(OCc2ccncc2)c(Cl)c1)N1CC(N2CCN(C(=O)c3nccs3)CC2)C1 [Cpd 398, 1-(1-{[3-Chloro-4-(pyridin-4-ylmethoxy)phenyl]carbon-yl}azetidin-3-yl)-4-(1,3-thiazol-2-ylcarbonyl)piperazine] | 0.0869 µM | 392% |  |  |
| O=C(c1ccc(OCc2cccc(Br)n2)cc1)N1CC(N2CCN(C(=O)c3cscn3)CC2)C1 [Cpd 987] | 0.327 µM | 320% |  |  |
| O=C(c1ccc2nc(-c3cccc(F)c3)sc2c1)N1CC(N2CCN(C(=O)c3nccs3)CC2)C1 [Cpd 1131] | 0.016 µM | 563% |  |  |
| COc1cncc(Oc2ccc(C(=O)N3CC(N4CCN(C(=O)c5nccs5)CC4)C3)cc2)c1 [Cpd 904] |  | 392% | 0.633 µM |  |
| O=C(c1nccs1)N1CCN(C2CN(C(=O)c3ccc(-c4ccccc4)cc3F)C2)CC1 [Cpd 1405, 1-{1-[(3-Fluorobiphenyl-4-yl)carbonyl]azetidin-3-yl}-4-(1,3-thiazol-2-ylcarbonyl)piperazine] |  | 197% | 0.002 µM |  |
| O=C(c1ccc(SCc2cccnc2)cc1)N1CC(N2CCN(C(=O)c3nccs3)CC2)C1 [Cpd 416] |  | 228% | 0.16 µM |  |
| O=C(c1cc2c(C(F)(F)F)cccc2s1)N1CC(N2CCN(C(=O)c3nccs3)CC2)C1 [Cpd 327, 1-(1,3-Thiazol-2-ylcarbonyl)-4-(1-{[4-(trifluoromethyl)-1-benzothiophen-2-yl]carbonyl}azetidin-3-yl)piperazine] | 0.0137 µM | 904% |  |  |
| O=C(c1ccc2c(cnn2-c2cccc(F)c2)c1)N1CC(N2CCN(C(=O)c3nccs3)CC2)C1 [Cpd 1110] |  | 807% |  | Kd ([2]; ThermoFluor, compound concentration measured by qNMR, read-out: MGL mutant ThermoFluor qKd (μM) (using qNMR conc.)): 0.01 µM |
| O=C(c1ccccc1)N1CCN(C2CN(C(=O)c3ccc4c(ccn4-c4cccc(C(F)(F)F)c4)c3)C2)CC1 [Cpd 129, 1-[3-(Trifluoromethyl)phenyl]-5-({3-[4-(phenyl-carbonyl)piperazin-1-yl]azetidin-1-yl}carbonyl)-1H-indole] | 0.01 µM | 499% |  |  |
| O=C(c1ccc(-c2cc(Cl)cc(Cl)c2)cc1)N1CC(N2CCN(C(=O)c3nccs3)CC2)C1 [Cpd 164, 1-{1-[(3′,5′-Dichlorobiphenyl-4-yl)carbonyl]azetidin-3-yl}-4-(1,3-thiazol-2-ylcarbonyl)piperazine] |  |  | 0.00111 µM | 2-AG accumulation, % of vehicle control at 10 µM [1]: 969% |
| O=C(c1ccc(OCc2cccc(Cl)c2)cc1)N1CC(N2CCN(C(=O)c3cscn3)CC2)C1 [Cpd 960] | 0.036 µM | 896% |  |  |
| O=C(c1ccc(Oc2ccccn2)c(F)c1)N1CC(N2CCN(C(=O)c3nccs3)CC2)C1 [Cpd 909] |  | 144% | 0.325 µM |  |
| O=C(c1ccccc1)N1CCN(C2CN(C(=O)c3ccc(OCc4ccccn4)c(Cl)c3)C2)CC1 [Cpd 406] | 0.932 µM | 99% |  |  |
| O=C(c1ccccc1)N1CCN(C2CN(C(=O)c3sc4cc(-c5ccccc5)ccc4c3Cl)C2)CC1 [Cpd 344] | 0.01 µM | 238% |  |  |

The next lines start with results.

| Kd [2, 3] | 2-AG accumulation, % of vehicle control at 1 µM [1] | Kd [2, 4] | SMILES | other results |
| --- | --- | --- | --- | --- |
| 0.04 µM |  |  | O=C(c1ccccc1)N1CCN(C2CN(C(=O)c3ccc(OCc4ccc(Cl)c(Cl)c4)cc3)C2)CC1 [Cpd 379, 1-[1-({4-[(3,4-dichlorobenzyl)oxy]phenyl}carbonyl)azetidin-3-yl]-4-(phenylcarbonyl)piperazine] | 2-AG accumulation, % of vehicle control at 10 µM [1]: 760% |
|  |  | 0.0333 µM | O=C(c1ccccc1)N1CCN(C2CN(C(=O)c3ccc(SCc4cccc(Cl)c4)cc3)C2)CC1 [Cpd 410, 1-[1-({4-[(3-Chlorobenzyl)sulfanyl]phenyl}carbonyl)azetidi-3-yl]-4-(phenylcarbonyl)piperazine] | 2-AG accumulation, % of vehicle control at 10 µM [1]: 720% |
|  | 165% | 0.051 µM | Cc1cc(C(=O)N2CC(N3CCN(C(=O)c4ccccc4)CC3)C2)ccc1-c1ccccc1 [Cpd 613] |  |
|  |  | 0.00909 µM | O=C(c1ccccc1)N1CCN(C2CN(C(=O)c3ccc(-c4cccc(Cl)c4)cc3)C2)CC1 [Cpd 77, 1-{1-[(3′-Chlorobiphenyl-4-yl)carbonyl]azetidin-3-yl}-4-(phenylcarbonyl)piperazine] | 2-AG accumulation, % of vehicle control at 10 µM [1]: 231% |
|  | 120% | 0.0532 µM | O=C(c1ccccc1)N1CCN(C2CN(C(=O)c3ccc(Oc4ccc(Cl)c(Cl)c4)cc3)C2)CC1 [Cpd 422, 1-(1-{[4-(3,4-Dichlorophenoxy)phenyl]carbonyl}azetidin-3-yl)-4-(phenylcarbonyl)piperazine] |  |
| 0.0333 µM |  |  | O=C(c1ccccc1)N1CCN(C2CN(C(=O)c3ccc(OCc4cccc(Cl)c4)c(Cl)c3)C2)CC1 [Cpd 397, 1-[1-({3-Chloro-4-[(3-chlorobenzyl)oxy]phenyl}carbonyl)azetidin-3-yl]-4-(phenylcarbonyl)piperazine] | 2-AG accumulation, % of vehicle control at 10 µM [1]: 243% |
| 0.025 µM | 110% |  | O=C(c1ccccc1)N1CCN(C2CN(C(=O)c3ccc(-c4ccc(Cl)c(C(F)(F)F)c4)cc3Cl)C2)CC1 [Cpd 268, 1-(1-{[3,4′-Dichloro-3′-(trifluoromethyl)biphenyl-4-yl]carbonyl}azetidin-3-yl)-4-(phenylcarbonyl)piperazine] |  |
| 0.0077 µM | 156% |  | Cc1cc(C(=O)N2CC(N3CCN(C(=O)c4ccccc4)CC3)C2)ccc1-c1ccc(F)c(Cl)c1 [Cpd 259, 1-{1-[(3′-Chloro-4′-fluoro-2-methylbiphenyl-4-yl)carbonyl]azetidin-3-yl}-4-(phenylcarbonyl)piperazine] |  |
| 0.0125 µM | 130% |  | O=C(c1ccccc1)N1CCN(C2CN(C(=O)c3ccc(-c4ccc(F)c(Cl)c4)cc3Cl)C2)CC1 [Cpd 267, 1-{1-[(3,3′-Dichloro-4′-fluorobiphenyl-4-yl)carbonyl]azetidin-3-yl}-4-(phenylcarbonyl)piperazine] |  |
| 0.027 µM | 115% |  | Cc1cc(-c2ccc(F)c(Cl)c2)ccc1C(=O)N1CC(N2CCN(C(=O)c3ccccc3)CC2)C1 [Cpd 255, 1-{1-[(3′-Chloro-4′-fluoro-3-methylbiphenyl-4-yl)carbonyl]azetidin-3-yl}-4-(phenylcarbonyl)piperazine] |  |
|  | 106% | 0.078 µM | O=C(c1ccccc1)N1CCN(C2CN(C(=O)c3ccc(-c4ccccc4)cc3Cl)C2)CC1 [Cpd 612] |  |

— patent US8362000B2, “Azetidinyl diamides as monoacylglycerol lipase inhibitors” (Janssen Pharmaceutica NV, priority 2009, dated 2013)
